Data taken from US12668600B2 (Kumquat Biosciences Inc., priority 2023, dated 2026).

Tests used:
Type in all cases: biochemical
KRAS G12D = target: T1, KRAS G12D (Homo sapiens, UniProt P01116, G12D); assay: HTRF KRAS-SOS1 interaction assay, KRAS G12D; conditions: binned ≤2 μM / >2 μM, read-out: Inhibition of KRAS G12D (IC50)
T1 construct: made in house; host or cells: E. coli, e.g. BL21 (DE3)
Summary of the method: (§1)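 Read-out: HTRF ratio 665/620 nm after ≥10 min incubation of compound with GST-KRAS/anti-GST-Eu and His-hSOS1/anti-6His-XL665. Duplicate dose series, 10 μM down to 0.01 μM. Buffer HEPES pH 7.4, NaCl, DTT, BSA, Igepal.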

KRAS WT = target: T2, KRAS WT (Homo sapiens, UniProt P01116); assay: HTRF KRAS-SOS1 interaction assay, wildtype KRAS; conditions: binned ≤2 μM / >2 μM, read-out: Inhibition of KRAS WT (IC50)
T2 construct: made in house; host or cells: E. coli, e.g. BL21 (DE3)
T2 sequence (P01116 1-188 isoform P01116-2): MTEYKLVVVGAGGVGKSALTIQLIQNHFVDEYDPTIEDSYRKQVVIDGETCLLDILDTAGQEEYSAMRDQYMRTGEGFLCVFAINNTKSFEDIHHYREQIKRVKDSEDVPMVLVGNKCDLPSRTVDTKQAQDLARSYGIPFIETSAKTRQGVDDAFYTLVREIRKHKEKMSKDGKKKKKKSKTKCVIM
Summary of the method: as §1

KRAS G12V = target: T3, KRAS G12V (Homo sapiens, UniProt P01116, G12V); assay: HTRF KRAS-SOS1 interaction assay, KRAS G12V; conditions: binned ≤2 μM / >2 μM, read-out: Inhibition of KRAS G12V (IC50)
T3 construct: made in house; host or cells: E. coli, e.g. BL21 (DE3)
T3 sequence (P01116 1-188 isoform P01116-2 G12V): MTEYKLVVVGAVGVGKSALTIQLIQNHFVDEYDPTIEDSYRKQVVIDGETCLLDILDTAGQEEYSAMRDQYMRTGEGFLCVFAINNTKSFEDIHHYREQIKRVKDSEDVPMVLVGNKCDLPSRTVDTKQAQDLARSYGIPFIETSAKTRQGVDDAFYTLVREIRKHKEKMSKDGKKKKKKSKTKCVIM
Summary of the method: as §1

KRAS G12S = target: T4, KRAS G12S (Homo sapiens, UniProt P01116, G12S); assay: HTRF KRAS-SOS1 interaction assay, KRAS G12S; conditions: binned ≤2 μM / >2 μM, read-out: Inhibition of KRAS G12S (IC50)
T4 construct: made in house; host or cells: E. coli, e.g. BL21 (DE3)
T4 sequence (P01116 1-188 isoform P01116-2 G12S): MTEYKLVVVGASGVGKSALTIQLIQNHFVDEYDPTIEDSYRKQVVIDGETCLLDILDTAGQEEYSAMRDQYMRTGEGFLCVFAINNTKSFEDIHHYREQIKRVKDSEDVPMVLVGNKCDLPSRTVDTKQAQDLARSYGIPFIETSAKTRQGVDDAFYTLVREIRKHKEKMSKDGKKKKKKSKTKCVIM
Summary of the method: as §1

T1 sequence (P01116 1-188 isoform P01116-2 G12D): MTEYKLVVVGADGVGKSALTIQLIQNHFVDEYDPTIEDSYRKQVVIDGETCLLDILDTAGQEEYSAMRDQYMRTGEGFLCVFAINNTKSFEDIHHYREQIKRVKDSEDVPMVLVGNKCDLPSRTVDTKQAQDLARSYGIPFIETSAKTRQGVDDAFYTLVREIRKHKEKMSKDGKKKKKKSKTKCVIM

SMILES	IC50 (KRAS G12D)	IC50 (KRAS WT)	IC50 (KRAS G12V)	IC50 (KRAS G12S)
N#Cc1c(N)sc2c(F)ccc(-c3c(C(F)(F)F)c4c5c(nc(OC[C@@]67CCCN6CC(=C(F)F)C7)nc5c3F)N([C@H](CCC(F)(F)F)c3cc(F)cnc3N)CCO4)c12 [Compound 640, 2-amino-4-(4-((R)-1-(2-amino-5-fluoropyridin-3-yl)-4,4,4-trifluorobutyl)-2-(((S)-2-(difluoromethylene)tetrahydro-1H-pyrrolizin-7a(5H)-yl)methoxy)-10-fluoro-8-(trifluoromethyl)-5,6-dihydro-4H-[1,4]oxazepino[5,6,7-de]quinazolin-9-yl)-7-fluorobenzo[b]thiophene-3-carbonitrile]	≤ 2000 nM	≤ 2000 nM	≤ 2000 nM	≤ 2000 nM
Cc1c(F)c(N)cc(-c2nc3c4c(nc(OC[C@@]56CCCN5C[C@H](F)C6)nc4c2F)N([C@H](C)c2cccnc2N)C[C@H](C)O3)c1C(F)(F)F (single isomer, unassigned) [Compound 687]	≤ 2000 nM	≤ 2000 nM	≤ 2000 nM	≤ 2000 nM
C[C@H](c1cccnc1N)N1C[C@H](C)Oc2c(C(F)(F)F)c(-c3ccc(F)c4sc(N)c(C#N)c34)c(F)c3nc(OC[C@@]45CCCN4C[C@H](F)C5)nc1c23 (single isomer, unassigned) [Compound 697]	≤ 2000 nM	≤ 2000 nM	≤ 2000 nM	≤ 2000 nM
N#Cc1c(N)sc2c(F)ccc(-c3c(Cl)c4c5c(nc(OC[C@@]67CCCN6C[C@H](F)C7)nc5c3F)N([C@H](/C=C/C(F)F)c3cccnc3N)CCO4)c12 [Compound 731, 2-amino-4-(4-((R,E)-1-(2-aminopyridin-3-yl)-4,4-difluorobut-2-en-1-yl)-8-chloro-10-fluoro-2-(((2R,7aS)-2-fluorotetrahydro-1H-pyrrolizin-7a(5H)-yl)methoxy)-5,6-dihydro-4H-[1,4]oxazepino[5,6,7-de]quinazolin-9-yl)-7-fluorobenzo[b]thiophene-3-carbonitrile]	≤ 2000 nM	≤ 2000 nM	≤ 2000 nM	≤ 2000 nM
Cc1c(F)c(N)cc(-c2nc3c4c(nc(OC[C@@H]5CCCN5C)nc4c2F)N([C@H](C)c2cccnc2N)CCO3)c1C(F)(F)F (single isomer, unassigned) [Compound 695]	≤ 2000 nM	≤ 2000 nM	≤ 2000 nM	≤ 2000 nM
N#Cc1c(N)sc2c(F)ccc(-c3c(C(F)(F)F)c4c5c(nc(OCC6(CN7CCC8(CC7)CC8(F)F)CC6)nc5c3F)N([C@H](CCC(F)(F)F)c3cccnc3N)CCO4)c12 [Compound 637, 2-amino-4-(4-((R)-1-(2-aminopyridin-3-yl)-4,4,4-trifluorobutyl)-2-((1-((1,1-difluoro-6-azaspiro[2.5]octan-6-yl)methyl)cyclopropyl)methoxy)-10-fluoro-8-(trifluoromethyl)-5,6-dihydro-4H-[1,4]oxazepino[5,6,7-de]quinazolin-9-yl)-7-fluorobenzo[b]thiophene-3-carbonitrile]	≤ 2000 nM	≤ 2000 nM	≤ 2000 nM	≤ 2000 nM
C[C@H](c1cccnc1N)N1CCOc2c(Cl)c(-c3cccc4sc(N)c(C#N)c34)c(F)c3nc(OC[C@@H]4CCCN4C)nc1c23 [Compound 612, 2-amino-4-(4-((R)-1-(2-aminopyridin-3-yl)ethyl)-8-chloro-10-fluoro-2-(((S)-1-methylpyrrolidin-2-yl)methoxy)-5,6-dihydro-4H-[1,4]oxazepino[5,6,7-de]quinazolin-9-yl)benzo[b]thiophene-3-carbonitrile]	≤ 2000 nM	≤ 2000 nM	≤ 2000 nM	≤ 2000 nM
COc1ccc([C@@H](C)N2CCOc3c(Cl)c(-c4ccc(F)c5sc(N)c(C#N)c45)c(F)c4nc(OC[C@@]56CCCN5C[C@H](F)C6)nc2c34)c(N)n1 [Compound 706, 2-amino-4-(4-((R)-1-(2-amino-6-methoxypyridin-3-yl)ethyl)-8-chloro-10-fluoro-2-(((2R,7aS)-2-fluorotetrahydro-1H-pyrrolizin-7a(5H)-yl)methoxy)-5,6-dihydro-4H-[1,4]oxazepino[5,6,7-de]quinazolin-9-yl)-7-fluorobenzo[b]thiophene-3-carbonitrile]	≤ 2000 nM	≤ 2000 nM	≤ 2000 nM	≤ 2000 nM
C#Cc1c(F)ccc2cc(O)cc(-c3nc4c5c(nc(OC[C@@H]6CCCN6C)nc5c3F)N(C(C)c3cccnc3N)CCO4)c12 (mixture of isomers) [Compound 722, 4-(10-(1-(2-aminopyridin-3-yl)ethyl)-4-fluoro-2-(((S)-1-methylpyrrolidin-2-yl)methoxy)-9,10-dihydro-8H-7-oxa-1,3,6,10-tetraazacyclohepta[de]naphthalen-5-yl)-5-ethynyl-6-fluoronaphthalen-2-ol]	≤ 2000 nM	≤ 2000 nM	≤ 2000 nM	≤ 2000 nM
CO[C@H]1CCN(C)[C@@H]1[C@H](C)Oc1nc2c3c(c(C(F)(F)F)c(-c4ccc(F)c5sc(N)c(C#N)c45)c(F)c3n1)OCCN2[C@H](CCC(F)(F)F)c1cccnc1N [Compound 649, 2-amino-4-(4-((R)-1-(2-aminopyridin-3-yl)-4,4,4-trifluorobutyl)-10-fluoro-2-((S)-1-((2R,3S)-3-methoxy-1-methylpyrrolidin-2-yl)ethoxy)-8-(trifluoromethyl)-5,6-dihydro-4H-[1,4]oxazepino[5,6,7-de]quinazolin-9-yl)-7-fluorobenzo[b]thiophene-3-carbonitrile]	≤ 2000 nM	≤ 2000 nM	≤ 2000 nM	≤ 2000 nM
Cc1cnc(N)c([C@@H](C)N2CCOc3c(C(F)(F)F)c(-c4ccc(F)c5sc(N)c(C#N)c45)c(F)c4nc(OC[C@@]56CCCN5C[C@H](F)C6)nc2c34)c1 (single isomer, unassigned) [Compound 796]	≤ 2000 nM	≤ 2000 nM	≤ 2000 nM	≤ 2000 nM

Other lines, results leading:

IC50 (KRAS G12D)	IC50 (KRAS WT)	IC50 (KRAS G12V)	IC50 (KRAS G12S)	SMILES
≤ 2000 nM	≤ 2000 nM	≤ 2000 nM	≤ 2000 nM	C[C@H](Oc1nc2c3c(c(Cl)c(-c4ccc(F)c5sc(N)c(C#N)c45)c(F)c3n1)OCCN2[C@H](C)c1cccnc1N)[C@@H]1CCCN1C (mixture of isomers) [Compound 803, 2-amino-4-(4-((R)-1-(2-aminopyridin-3-yl)ethyl)-8-chloro-10-fluoro-2-((S)-1-((S)-1-methylpyrrolidin-2-yl)ethoxy)-5,6-dihydro-4H-[1,4]oxazepino[5,6,7-de]quinazolin-9-yl)-7-fluorobenzo[b]thiophene-3-carbonitrile]
≤ 2000 nM	≤ 2000 nM	≤ 2000 nM	≤ 2000 nM	C#CC(F)(F)[C@H](c1cccnc1N)N1CCOc2c(Cl)c(-c3ccc(F)c4sc(N)c(C#N)c34)c(F)c3nc(OC[C@@]45CCCN4C[C@H](F)C5)nc1c23 [Compound 867, 2-amino-4-(4-((S)-1-(2-aminopyridin-3-yl)-2,2-difluorobut-3-yn-1-yl)-8-chloro-10-fluoro-2-(((2R,7aS)-2-fluorotetrahydro-1H-pyrrolizin-7a(5H)-yl)methoxy)-5,6-dihydro-4H-[1,4]oxazepino[5,6,7-de]quinazolin-9-yl)-7-fluorobenzo[b]thiophene-3-carbonitrile]
≤ 2000 nM	≤ 2000 nM	≤ 2000 nM	≤ 2000 nM	C[C@H](c1cc(C#N)cnc1N)N1CCOc2c(Cl)c(-c3ccc(F)c4sc(N)c(C#N)c34)c(F)c3nc(OC[C@@]45CCCN4C[C@H](F)C5)nc1c23 [Compound 873, 6-amino-5-((1R)-1-(9-(2-amino-3-cyano-7-fluorobenzo[b]thiophen-4-yl)-8-chloro-10-fluoro-2-(((2R,7aS)-2-fluorotetrahydro-1H-pyrrolizin-7a(5H)-yl)methoxy)-5,6-dihydro-4H-[1,4]oxazepino[5,6,7-de]quinazolin-4-yl)ethyl)nicotinonitrile]
> 2000 nM	> 2000 nM	> 2000 nM	> 2000 nM	C[C@@H]1COCCN1CC1(COc2nc3c4c(c(C(F)(F)F)c(-c5ccc(F)c6sc(N)c(C#N)c56)c(F)c4n2)OCCN3[C@H](C)c2cccnc2N)CC1 (single isomer, unassigned) [Compound 807]
≤ 2000 nM	≤ 2000 nM	≤ 2000 nM	≤ 2000 nM	Cc1c(F)c(N)cc(-c2nc3c4c(nc(O[C@@H](C)[C@@H]5CCCN5C)nc4c2F)N([C@H](C)c2cccnc2N)C[C@H](C)O3)c1C(F)(F)F (single isomer, unassigned) [Compound 816]
≤ 2000 nM	≤ 2000 nM	≤ 2000 nM	≤ 2000 nM	N#Cc1c(N)sc2c(F)ccc(-c3c(C(F)(F)F)c4c5c(nc(OCC6(CN7CCC8(CC7)CC8(F)F)CC6)nc5c3F)N([C@H](CCC3CCOCC3)c3cccnc3N)CCO4)c12 [Compound 907, 2-amino-4-(4-((R)-1-(2-aminopyridin-3-yl)-3-(tetrahydro-2H-pyran-4-yl)propyl)-2-((1-((1,1-difluoro-6-azaspiro[2.5]octan-6-yl)methyl)cyclopropyl)methoxy)-10-fluoro-8-(trifluoromethyl)-5,6-dihydro-4H-[1,4]oxazepino[5,6,7-de]quinazolin-9-yl)-7-fluorobenzo[b]thiophene-3-carbonitrile]
